Measured values as given in the NIST ThermoML archive (doi:10.1016/j.fluid.2011.08.018).
Numbers after ± are expanded uncertainties.

Assay: mean ionic activity coefficient (dimensionless); mn = molality of the nth substance listed, in mol/kg
Details: 298.15 K, 101 kPa, Liquid, EMF measurements

[Cl-].[Na+] [sodium chloride] + CNC=O
Details	mean ionic activity coefficient
m1 = 0.0396	0.986 ± 0.01
m1 = 0.052	0.985 ± 0.01
m1 = 0.0642	0.983 ± 0.01
m1 = 0.102	0.984 ± 0.01
m1 = 0.1375	0.984 ± 0.01
m1 = 0.1655	0.978 ± 0.01
m1 = 0.1934	0.971 ± 0.01

[Cl-].[Na+] [sodium chloride] + O
Details	mean ionic activity coefficient
m1 = 0.0496	0.819 ± 0.01
m1 = 0.1857	0.733 ± 0.01
m1 = 0.1979	0.733 ± 0.01
m1 = 0.3096	0.707 ± 0.01
m1 = 0.3711	0.689 ± 0.01
m1 = 0.4571	0.686 ± 0.01
m1 = 0.5916	0.675 ± 0.01
m1 = 0.6871	0.659 ± 0.01
m1 = 0.8318	0.663 ± 0.01
m1 = 1.139	0.651 ± 0.01
m1 = 1.212	0.659 ± 0.01
m1 = 1.77	0.657 ± 0.01
m1 = 1.87	0.67 ± 0.01
m1 = 2.394	0.68 ± 0.01
m1 = 2.624	0.702 ± 0.01
m1 = 3.587	0.75 ± 0.01
m1 = 3.811	0.78 ± 0.01
m1 = 4.654	0.83 ± 0.01
m1 = 5.142	0.891 ± 0.01
m1 = 5.443	0.921 ± 0.01
m1 = 5.693	0.929 ± 0.01
m1 = 5.891	0.97 ± 0.01
m1 = 6.032	0.985 ± 0.01
m1 = 6.085	0.976 ± 0.01
m1 = 6.1	0.997 ± 0.01
